The target in one experiment is T1, mHck (Mus musculus, UniProt P08103, Q521E/Q522E/Q523I).
T1 construct: the N-terminal unique domain was replaced with a hexahistidine tag; hexahistidine (N); made in house; host or cells: Sf9 insect cells (baculovirus)
Kind of experiment: Z'-Lyte in vitro kinase assay, mHck alone. It is filed as biochemical. As to conditions: read-out: Km, ATP. As for the experimental part: (§1) Protein-tyrosine kinase assays were performed using the FRET-based Z'-Lyte kinase assay kit and Tyr-2 peptide substrate according to the manufacturer's instructions (Life Technologies) and our previous work. All assays were performed in quadruplicate in low-volume, non-binding 384-well plates (Corning). […] The Km for ATP was then calculated from a plot of ATP concentration against initial reaction velocity followed by non-linear regression analysis (GraphPad Prism). […] Development reagent was then added to the reaction for an additional 1 h at room temperature, followed by addition of the stop reagent. Fluorescence was assessed at an excitation wavelength of 400 nm; coumarin fluorescence and the fluorescein FRET signal were monitored at 445 and 520 nm, respectively. Reactions run in the absence of ATP served as the 0% phosphorylation control, whereas a stoichiometrically phosphorylated Tyr2 peptide was used as the 100% phosphorylation control. Raw fluorescence values were corrected for background, and reaction endpoints calculated as emission ratios of coumarin fluorescence divided by the fluorescein FRET signal. These ratios were normalized to the ratio obtained with the 100% phosphorylation control peptide. IC50 values were calculated using a sigmoidal curve fit using GraphPad Prism. […]

The next experiment has as its system T2, mHck-HART.
T2 construct: the N-terminal unique domain was replaced with a hexahistidine tag; hexahistidine (N); made in house; host or cells: Sf9 insect cells (baculovirus)
Briefly: Z'-Lyte in vitro kinase assay, mHck-HART alone. The following applies: read-out: Km, ATP. The format is biochemical, mouse. As for the experimental part: as §1

The next experiment deals with T3, mHck + Nef-SF2 (Mus musculus, UniProt P08103, Q521E/Q522E/Q523I).
T3 construct: the N-terminal unique domain was replaced with a hexahistidine tag; hexahistidine (N); made in house; host or cells: Hck: Sf9 insect cells; Nef: E. coli
Kind of experiment: Z'-Lyte in vitro kinase assay, mHck + Nef-SF2. It is filed as biochemical. The following applies: mHck + Nef-SF2, Nef at 10-fold molar excess; read-out: Km, ATP. The protocol: as §1

The target of the next experiment is T4, mHck-TA + Nef-SF2 (Mus musculus, UniProt P08103, Q521E/Q522E/Q523I/T331A).
T4 construct: the N-terminal unique domain was replaced with a hexahistidine tag; hexahistidine (N); made in house; host or cells: Hck: Sf9 insect cells; Nef: E. coli
Briefly: Z'-Lyte in vitro kinase assay, mHck-TA + Nef-SF2. It is filed as biochemical. As to conditions: mHck-TA + Nef-SF2, Nef at 10-fold molar excess; read-out: Km, ATP. The protocol:
as §1

A further experiment has as its target T5, mHck-TA-HART + Nef-SF2 (Mus musculus, UniProt P08103, A89S/E88T/E93W/H91F/I90P/Q521E/Q522E/Q523I/R92P/T331A).
T5 construct: the N-terminal unique domain was replaced with a hexahistidine tag; hexahistidine (N); made in house; host or cells: Hck: Sf9 insect cells; Nef: E. coli
The format is biochemical. As for the experimental part:
Protein-tyrosine kinase assays were performed using the FRET-based Z'-Lyte kinase assay kit and Tyr-2 peptide substrate according to the manufacturer's instructions (Life Technologies) and our previous work. All assays were performed in quadruplicate in low-volume, non-binding 384-well plates (Corning). […] The Km for ATP was then calculated from a plot of ATP concentration against initial reaction velocity followed by non-linear regression analysis (GraphPad Prism). […] Development reagent was then added to the reaction for an additional 1 h at room temperature, followed by addition of the stop reagent. Fluorescence was assessed at an excitation wavelength of 400 nm; coumarin fluorescence and the fluorescein FRET signal were monitored at 445 and 520 nm, respectively. Reactions run in the absence of ATP served as the 0% phosphorylation control, whereas a stoichiometrically phosphorylated Tyr2 peptide was used as the 100% phosphorylation control. Raw fluorescence values were corrected for background, and reaction endpoints calculated as emission ratios of coumarin fluorescence divided by the fluorescein FRET signal. These ratios were normalized to the ratio obtained with the 100% phosphorylation control peptide. IC50 values were calculated using a sigmoidal curve fit using GraphPad Prism. Additional details of the Z'-Lyte assay principle and calculation of percent inhibition has been described elsewhere.

The target of experiment [1] is mHck-TA-HART + Nef-Consensus (Mus musculus, UniProt P08103, A89S/E88T/E93W/H91F/I90P/Q521E/Q522E/Q523I/R92P/T331A). Kind of experiment: Z'-Lyte in vitro kinase assay, mHck-TA-HART + Nef-Consensus. The format is biochemical. As for the experimental part: as §1
For experiment [2], the target named is T6, mHck-TA-HART (Mus musculus, UniProt P08103, A89S/E88T/E93W/H91F/I90P/Q521E/Q522E/Q523I/R92P/T331A).
T6 construct: the N-terminal unique domain was replaced with a hexahistidine tag; hexahistidine (N); made in house; host or cells: Sf9 insect cells (baculovirus)
Kind of experiment: Z'-Lyte in vitro kinase assay, mHck-TA-HART alone. The format is biochemical. The following applies: read-out: Km, ATP. The protocol: as §1

The target in a further experiment is T7, mHck-TA + Nef-Consensus (Mus musculus, UniProt P08103, Q521E/Q522E/Q523I/T331A).
T7 construct: the N-terminal unique domain was replaced with a hexahistidine tag; hexahistidine (N); made in house; host or cells: Hck: Sf9 insect cells; Nef: E. coli
Briefly: Z'-Lyte in vitro kinase assay, mHck-TA + Nef-Consensus. The format is biochemical. As to conditions: Nef at 10-fold molar excess, read-out: Km, ATP. As for the experimental part: as §1

Experiment [3] concerns the target T8, mHck-TA (Mus musculus, UniProt P08103, Q521E/Q522E/Q523I/T331A).
T8 construct: the N-terminal unique domain was replaced with a hexahistidine tag; hexahistidine (N); made in house; host or cells: Sf9 insect cells (baculovirus)
Briefly: Z'-Lyte in vitro kinase assay, mHck-TA alone. It is filed as biochemical. The following applies: read-out: Km, ATP. As for the experimental part: as §1

Another experiment deals with T9, mHck-HART + Nef-SF2.
T9 construct: the N-terminal unique domain was replaced with a hexahistidine tag; hexahistidine (N); made in house; host or cells: Hck: Sf9 insect cells; Nef: E. coli
Briefly: Z'-Lyte in vitro kinase assay, mHck-HART + Nef-SF2. The format is biochemical, mouse. The following applies: mHck-HART + Nef-SF2, Nef at 10-fold molar excess; read-out: Km, ATP. As for the experimental part: as §1

Experiment [4] has as its target T8, mHck-TA. Kind of experiment: Nef-induced kinase activation over kinase:Nef ratios (Z'-Lyte). The format is biochemical. The protocol:
as §1, with “Reactions run in the absence of ATP served as the 0% phosphorylation control, whereas a stoichiometrically phosphorylated Tyr2 peptide was used as the 100% phosphorylation control.” left out, “These ratios were normalized to the ratio obtained with the 100% phosphorylation control peptide.” left out
(§2) To determine the impact of the SH3-HART modification in the context of near full-length Hck, we next introduced the HART coding sequence into mHck-TA. […] This observation fits with the smaller enhancement in SH3-HART binding to Nef-Consensus as determined by SPR. […]

For experiment [5], the target named is T6, mHck-TA-HART. The description is as above. The format is biochemical. The protocol: as §1, with “Reactions run in the absence of ATP served as the 0% phosphorylation control, whereas a stoichiometrically phosphorylated Tyr2 peptide was used as the 100% phosphorylation control.” left out, “These ratios were normalized to the ratio obtained with the 100% phosphorylation control peptide.” left out
as §2

The target in experiment [6] is similarly modified Hck SH3 domain. The following applies: ITC; read-out: interaction (KD) with a similarly modified Hck SH3 domain via ITC; cited from earlier work.
A further experiment deals with T10, Mouse Hck HART (Mus musculus, UniProt P08103, A89S/E88T/E93W/H91F/I90P/R92P).
T10 construct: made in house; host or cells: E. coli BL21(DE3)pLysS
Briefly: Surface plasmon resonance (SPR), Nef binding to immobilized SH3 domain. As for the experimental part:
(§3) Recombinant Hck SH3 domain proteins were exchanged into HBS-EP buffer (10 mM HEPES, pH 7.4, 150 mM NaCl, 3 mM EDTA, 0.05% v/v P20 surfactant) and concentrated with an Amicon Ultra 15 ml 3 kDa molecular weight cutoff spin concentrator. Primary untagged Nef proteins were exchanged into HBS-EPD buffer (10 mM HEPES, pH 7.4, 150 mM NaCl, 3 mM EDTA, 0.05% v/v P20 surfactant, 1 mM DTT) and concentrated with an Amicon Ultra 15 ml 10 kDa molecular weight cutoff spin concentrator. SPR analysis was performed on a BIAcore 3000 instrument (GE Healthcare) using a four-channel CM5 biosensor chip with the Hck SH3 domains covalently attached as ligand via standard amine coupling chemistry. […] The initial binding reaction was followed by dissociation for 5 min, and the chip surface was regenerated using HBS-EPD buffer at a flow rate of 30 μl/min for 10 min. Binding curves recorded at each analyte concentration were assessed in triplicate, corrected for buffer effects, and fit to a 1:1 Langmuir binding model using the BIAevaluation 4.1 software suite (GE Healthcare).

For a further experiment, the target named is T11, Human Hck SH3 (Homo sapiens, UniProt P08631).
T11 construct: made in house; host or cells: E. coli BL21(DE3)pLysS
The experiment is described as above. The following applies: 1:1 Langmuir model. As for the experimental part: as §3

The target in the next experiment is T12, Mouse Hck SH3 (Mus musculus, UniProt P08103).
T12 construct: made in house; host or cells: E. coli BL21(DE3)pLysS
Described as above. As to conditions: 1:1 Langmuir model. The protocol:
as §3

The mark [7] stands for this setting: mHck-TA-HART with Nef-SF2 vs alone.
[8] abbreviates: HART vs wild-type mouse SH3 domain.
Setting [9] is: Mouse Hck HART SH3 immobilized, 1:1 Langmuir model.

T12 sequence (P08103 76-136 limits assumed): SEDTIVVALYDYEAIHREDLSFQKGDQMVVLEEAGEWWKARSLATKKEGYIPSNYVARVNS
T10 sequence (P08103 76-136 E88T/A89S/I90P/H91F/R92P/E93W limits assumed): as the sequence (P08103 76-136 limits assumed) above, with E13T, A14S, I15P, H16F, R17P, E18W counted along it
T5 sequence (P08103 whole entry E88T/A89S/I90P/H91F/R92P/E93W/T331A/Q521E/Q522E/Q523I, looked up, the tested form may be a part): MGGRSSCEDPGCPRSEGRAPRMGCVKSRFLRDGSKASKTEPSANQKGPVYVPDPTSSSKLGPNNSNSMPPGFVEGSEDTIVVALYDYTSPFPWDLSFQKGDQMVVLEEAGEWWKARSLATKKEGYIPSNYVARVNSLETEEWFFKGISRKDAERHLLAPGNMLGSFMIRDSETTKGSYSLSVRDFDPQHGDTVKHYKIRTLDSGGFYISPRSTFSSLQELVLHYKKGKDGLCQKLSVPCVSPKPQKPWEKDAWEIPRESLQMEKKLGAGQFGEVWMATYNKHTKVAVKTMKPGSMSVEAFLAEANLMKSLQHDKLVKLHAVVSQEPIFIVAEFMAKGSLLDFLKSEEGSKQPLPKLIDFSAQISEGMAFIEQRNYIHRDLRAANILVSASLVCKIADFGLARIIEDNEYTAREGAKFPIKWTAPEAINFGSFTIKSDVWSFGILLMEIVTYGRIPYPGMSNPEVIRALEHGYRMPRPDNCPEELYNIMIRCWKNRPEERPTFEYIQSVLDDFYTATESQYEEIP
T11 sequence (P08631 78-138 limits assumed): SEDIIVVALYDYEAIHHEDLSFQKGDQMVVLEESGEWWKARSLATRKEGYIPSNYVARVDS
T8 sequence (P08103 76-524 T331A/Q521E/Q522E/Q523I limits assumed): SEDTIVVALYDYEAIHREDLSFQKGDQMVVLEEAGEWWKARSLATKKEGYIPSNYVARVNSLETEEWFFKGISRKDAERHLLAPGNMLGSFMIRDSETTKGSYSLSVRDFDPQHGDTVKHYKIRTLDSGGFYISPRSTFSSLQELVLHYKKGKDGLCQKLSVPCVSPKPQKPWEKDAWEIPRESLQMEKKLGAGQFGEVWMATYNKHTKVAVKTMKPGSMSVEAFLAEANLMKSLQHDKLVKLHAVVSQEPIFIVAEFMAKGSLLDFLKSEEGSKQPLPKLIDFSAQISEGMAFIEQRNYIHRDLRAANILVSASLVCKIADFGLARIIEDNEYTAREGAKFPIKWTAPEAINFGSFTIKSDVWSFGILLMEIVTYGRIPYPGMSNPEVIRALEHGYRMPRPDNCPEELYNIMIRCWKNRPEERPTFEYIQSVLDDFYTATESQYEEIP
T6 sequence (P08103 76-524 E88T/A89S/I90P/H91F/R92P/E93W/T331A/Q521E/Q522E/Q523I): as the sequence (P08103 76-524 T331A/Q521E/Q522E/Q523I limits assumed) above, with E13T, A14S, I15P, H16F, R17P, E18W counted along it
Chain of mHck-TA-HART + Nef-Consensus (P08103 76-524 E88T/A89S/I90P/H91F/R92P/E93W/T331A/Q521E/Q522E/Q523I): as the sequence (P08103 76-524 T331A/Q521E/Q522E/Q523I limits assumed) above, with E13T, A14S, I15P, H16F, R17P, E18W counted along it
T4 sequence (P08103 76-524 T331A/Q521E/Q522E/Q523I limits assumed): as the sequence (P08103 76-524 T331A/Q521E/Q522E/Q523I limits assumed) above
T7 sequence (P08103 76-524 T331A/Q521E/Q522E/Q523I limits assumed): as above
T3 sequence (P08103 76-524 Q521E/Q522E/Q523I): as the sequence (P08103 76-524 T331A/Q521E/Q522E/Q523I limits assumed) above, with A256T counted along it
T1 sequence (P08103 76-524 Q521E/Q522E/Q523I): as the sequence (P08103 76-524 T331A/Q521E/Q522E/Q523I limits assumed) above, with A256T counted along it

For the molecule `Nc1ncnc2c1ncn2[C@@H]1O[C@H](COP(=O)(O)OP(=O)(O)OP(=O)(O)O)[C@@H](O)[C@H]1O` [ATP], the Km came out at 12.1 ± 2 µM at mHck; 105 ± 29 µM with mHck-HART; 14.8 ± 1.4 µM on mHck + Nef-SF2; 68 ± 10.7 µM at mHck-TA + Nef-SF2; 69 ± 17.6 µM on mHck-TA-HART + Nef-SF2 (mHck-TA-HART + Nef-SF2, Nef at 10-fold molar excess, read-out: Km, ATP); 76 ± 23.1 µM in [1] (mHck-TA-HART + Nef-Consensus, Nef at 10-fold molar excess, read-out: Km, ATP). Moreover, the Km at mHck-TA-HART [2] came out at 181 ± 28.7 µM; on mHck-TA + Nef-Consensus, 84 ± 3.5 µM; on mHck-TA [3], 62 ± 12.6 µM; in the experiment on mHck-HART + Nef-SF2, 49.3 ± 5.8 µM. In addition, the “reduction of the Km for ATP in the presence of Nef” value (on mHck-TA-HART + Nef-SF2 (setting [7]); in experiment [1] (mHck-TA-HART with Nef-Consensus vs alone)) was ~ 2.5 fold in each case.
For the molecule `CC(C)(C)n1nc(-c2cccc3ccccc23)c2c(N)ncnc21` [NaPP1, reference compound], the “increase in sensitivity to inhibition by NaPP1 in the presence of Nef” value on mHck-TA-HART + Nef-SF2 (setting [7]) was “more than three-fold”.
For “Nef-SF2: recombinant HIV-1 Nef protein, B-clade allele SF2, expressed in E. coli”, the “excess of Nef required for full activation” value in the experiment with mHck-TA [4] is 5 fold. Also, in the experiment with mHck-TA-HART [5], the “kinase:Nef ratio at maximal activation” value lay within 1 to 1. The Kd in experiment [6] was 12 nM. For the same molecule, in the experiment with Mouse Hck HART (setting [8]), the “enhancement of affinity by introduction of the HART sequence” value came out at 13 fold and the “increase in the association rate constant with SH3-HART” value turned out to be 2.5 fold. In the experiment with Mouse Hck HART (HART vs wild-type mouse SH3 domain, decrease for Nef-SF2, essentially unchanged for Nef-Consensus), the “change in the dissociation rate constant with SH3-HART” value was about 5 fold. In the experiment with Mouse Hck HART (setting [9]), this molecule came in with a Kd of 10 nM, a ka of 14.20 ± 1.40 M^-1s^-1 × 10^5 and a kd of 1.43 ± 0.01 s^-1 × 10^-2. In the experiment with Human Hck SH3, the Kd stood at 70 ± 10 nM, the ka is 1.60 ± 0.06 M^-1s^-1 × 10^5 and the kd is recorded as 1.18 ± 0.04 s^-1 × 10^-2. In the experiment with Mouse Hck SH3, this molecule registered a Kd of 130 ± 30 nM, a ka of 5.54 ± 1.77 M^-1s^-1 × 10^5 and a kd of 7.00 ± 0.36 s^-1 × 10^-2.
